Broadly, the IC50 is the concentration that gives 50% inhibition.

The values below come from patent US20040072738A1, “Analogues of thiocoraline and be-22179” (priority 2000, published 2004).

Bridge positions count the residues as written; N and C are the ends. Square brackets hold non-standard residues; d marks the D form. Peptide text beside a SMILES is read from it. I, II: the chains in the order shown. * marks the point of attachment. Quinaldoyl(3-OH) = O=C(c1nc2ccccc2cc1O)*; NMeC = CN[C@@H](CS)C(=O)O

Series [1] has as its system supercoiled ΦX174 DNA. Briefly: DNA cleavage assay, conversion of Form I to Form II or Form III. It counts as biochemical. The text has this: Also examined was the ability of 1 or 2 to cleave, alkylate, or cross-link DNA. In particular, the electrophilic unsaturation found in BE-22179 might be expected to serve as an alkylation site for covalent attachment to DNA, especially following bisintercalation binding. […] These studies would detect both thermally labile and non thermally labile alkylation sites, but only those engaged in interstrand cross-linking. Given the C2 symmetric nature of 2, bisintercalation analogous to echinomycin and triostin A places the two electrophilic sites in positions to react only with the complementary strands of duplex DNA (interstrand DNA cross-linking) and would preclude intrastrand DNA cross-linking.

Series [2] addresses T1, DNA topoisomerase I (Homo sapiens, UniProt P11387).
T1 sequence (P11387 1-765): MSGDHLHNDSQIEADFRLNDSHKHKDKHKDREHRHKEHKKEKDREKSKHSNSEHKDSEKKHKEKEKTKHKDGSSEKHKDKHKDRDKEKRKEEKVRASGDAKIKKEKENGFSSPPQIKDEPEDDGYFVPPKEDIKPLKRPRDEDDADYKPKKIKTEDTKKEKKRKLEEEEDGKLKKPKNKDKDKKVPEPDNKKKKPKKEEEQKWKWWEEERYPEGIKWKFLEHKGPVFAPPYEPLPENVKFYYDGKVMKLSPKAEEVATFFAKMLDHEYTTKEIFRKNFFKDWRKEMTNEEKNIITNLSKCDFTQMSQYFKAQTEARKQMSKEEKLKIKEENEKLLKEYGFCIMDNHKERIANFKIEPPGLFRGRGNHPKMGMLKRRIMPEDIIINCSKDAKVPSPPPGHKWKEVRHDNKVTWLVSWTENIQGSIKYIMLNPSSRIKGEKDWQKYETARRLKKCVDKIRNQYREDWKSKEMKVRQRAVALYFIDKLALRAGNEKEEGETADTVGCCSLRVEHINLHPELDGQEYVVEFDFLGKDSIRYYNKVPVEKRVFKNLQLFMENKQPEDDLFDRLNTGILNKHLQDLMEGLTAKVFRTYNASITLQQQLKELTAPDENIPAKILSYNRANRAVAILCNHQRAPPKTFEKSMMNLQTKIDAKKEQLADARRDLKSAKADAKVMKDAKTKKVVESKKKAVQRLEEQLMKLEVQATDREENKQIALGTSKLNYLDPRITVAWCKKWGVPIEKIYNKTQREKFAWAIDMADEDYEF
The conditions noted are these: cited from earlier work.

Series [3] concerns the target HIV-1 reverse transcriptase (Human immunodeficiency virus type 1 group M subtype B, UniProt P03366). Briefly: inhibition of HIV-1 reverse transcriptase. It counts as biochemical.
Series [4] deals with L1210 cell line. Kind of series: cytotoxic activity in the L1210 assays. As to conditions: read-out: IC50 cytotoxic activity; L1210 cell line.
Series [5] deals with T2, DNA polymerase α (Homo sapiens, UniProt P09884).
T2 sequence (P09884 1-1462): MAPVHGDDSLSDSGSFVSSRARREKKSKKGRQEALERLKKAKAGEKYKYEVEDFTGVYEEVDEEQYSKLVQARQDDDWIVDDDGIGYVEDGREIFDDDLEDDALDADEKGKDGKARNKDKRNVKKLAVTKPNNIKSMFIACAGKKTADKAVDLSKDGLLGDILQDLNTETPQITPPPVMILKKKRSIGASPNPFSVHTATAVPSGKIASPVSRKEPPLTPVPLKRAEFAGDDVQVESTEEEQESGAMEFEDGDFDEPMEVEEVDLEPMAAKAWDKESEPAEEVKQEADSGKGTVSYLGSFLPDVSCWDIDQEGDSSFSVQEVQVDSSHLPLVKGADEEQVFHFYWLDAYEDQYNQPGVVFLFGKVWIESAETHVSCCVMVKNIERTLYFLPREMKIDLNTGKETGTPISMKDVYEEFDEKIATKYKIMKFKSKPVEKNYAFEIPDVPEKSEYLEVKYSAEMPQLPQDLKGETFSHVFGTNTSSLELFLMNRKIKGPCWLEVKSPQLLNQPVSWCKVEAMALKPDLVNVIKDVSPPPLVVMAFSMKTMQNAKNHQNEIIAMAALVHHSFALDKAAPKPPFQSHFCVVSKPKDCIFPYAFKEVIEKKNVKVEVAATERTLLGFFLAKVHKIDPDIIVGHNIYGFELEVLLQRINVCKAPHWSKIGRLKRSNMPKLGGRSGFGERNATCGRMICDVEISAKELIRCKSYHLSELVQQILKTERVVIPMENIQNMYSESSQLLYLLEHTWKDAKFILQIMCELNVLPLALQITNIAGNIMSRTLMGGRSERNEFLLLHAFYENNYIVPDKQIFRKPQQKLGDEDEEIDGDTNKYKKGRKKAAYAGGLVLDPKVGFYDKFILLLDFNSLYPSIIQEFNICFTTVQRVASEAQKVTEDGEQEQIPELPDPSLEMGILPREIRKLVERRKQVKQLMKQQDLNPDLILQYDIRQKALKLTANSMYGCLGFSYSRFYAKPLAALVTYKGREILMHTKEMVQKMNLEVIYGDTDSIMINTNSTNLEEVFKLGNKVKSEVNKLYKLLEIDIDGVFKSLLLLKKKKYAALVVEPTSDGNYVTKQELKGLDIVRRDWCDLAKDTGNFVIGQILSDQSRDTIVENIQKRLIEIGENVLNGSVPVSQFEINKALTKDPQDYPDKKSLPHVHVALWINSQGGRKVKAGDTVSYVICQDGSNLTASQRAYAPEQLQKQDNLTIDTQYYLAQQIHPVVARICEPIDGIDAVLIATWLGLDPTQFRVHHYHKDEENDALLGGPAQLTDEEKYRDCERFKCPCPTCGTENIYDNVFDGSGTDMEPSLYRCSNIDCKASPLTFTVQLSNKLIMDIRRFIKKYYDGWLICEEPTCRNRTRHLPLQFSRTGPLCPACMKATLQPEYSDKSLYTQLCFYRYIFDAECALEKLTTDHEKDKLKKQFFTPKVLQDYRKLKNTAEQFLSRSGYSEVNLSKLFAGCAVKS
The conditions noted are these: at concentrations that inhibit cell cycle progression and clonogenicity; cited from earlier work.

Consider `CSC[C@H]1C(=O)SC[C@@H](NC(=O)c2nc3ccccc3cc2O)C(=O)NCC(=O)N(C)[C@H]2CSSC[C@@H](C(=O)N1C)N(C)C(=O)CNC(=O)[C@H](NC(=O)c1nc3ccccc3cc1O)CSC(=O)[C@H](CSC)N(C)C2=O` [Thiocoraline] (I: {Quinaldoyl(3-OH)}-[dC]G[NMeC][NMeC](Me) / II: {Quinaldoyl(3-OH)}-[dC]G[NMeC][NMeC](Me); thioester I:1-II:C, I:C-II:1; disulfide I:3-II:3), for which, in series [1], the DNA cleavage result was “No evidence”. Also, the “inhibition of DNA topoisomerase I” value in series [2] is on record as “does not inhibit”. Besides, the “inhibition of HIV-1 reverse transcriptase (in words)” value in series [3] is reported as “weak inhibitor”. The IC50 in series [4] came to 0.2 nM. Moreover, the “inhibition of DNA polymerase α” value in series [5] is given as “does inhibit”.
